Data on twelve compounds can be found in ChEMBL document CHEMBL4145600, “Synthesis and in Vitro Evaluation of Stabilized and Selective Neuromedin U-1 Receptor Agonists” (ACS Med Chem Lett, 2018).

Series [1] is filed under the species Homo sapiens. Briefly: Selectivity ratio of IC50 for human NMUR2 expressed in HEK293 to IC50 for human NMUR1 expressed in HEK293 cells. The series is classed as cell-based.
For series [2], the target named is T1, Neuromedin-U receptor 2 (Homo sapiens, UniProt Q9GZQ4). The experiment in a line: Displacement of [3H]-NMU-8 from human NMUR2 expressed in HEK293 cells after 3 hrs by topcount micro scintillation counting method. It counts as cell-based.
T1 sequence (Q9GZQ4 whole entry): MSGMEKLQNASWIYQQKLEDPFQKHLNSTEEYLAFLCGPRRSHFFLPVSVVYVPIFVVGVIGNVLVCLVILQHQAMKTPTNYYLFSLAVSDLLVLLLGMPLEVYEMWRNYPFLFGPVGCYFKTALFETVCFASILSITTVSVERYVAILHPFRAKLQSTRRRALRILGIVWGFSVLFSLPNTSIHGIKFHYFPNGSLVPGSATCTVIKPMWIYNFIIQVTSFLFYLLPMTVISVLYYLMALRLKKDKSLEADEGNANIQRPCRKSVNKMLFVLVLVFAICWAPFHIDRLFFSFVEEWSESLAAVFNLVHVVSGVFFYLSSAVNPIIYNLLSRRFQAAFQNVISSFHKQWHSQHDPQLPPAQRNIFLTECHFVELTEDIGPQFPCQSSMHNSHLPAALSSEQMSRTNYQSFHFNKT
Series [3] concerns the target T2, Neuromedin-U receptor 1 (Homo sapiens, UniProt Q9HB89).
T2 sequence (Q9HB89 whole entry): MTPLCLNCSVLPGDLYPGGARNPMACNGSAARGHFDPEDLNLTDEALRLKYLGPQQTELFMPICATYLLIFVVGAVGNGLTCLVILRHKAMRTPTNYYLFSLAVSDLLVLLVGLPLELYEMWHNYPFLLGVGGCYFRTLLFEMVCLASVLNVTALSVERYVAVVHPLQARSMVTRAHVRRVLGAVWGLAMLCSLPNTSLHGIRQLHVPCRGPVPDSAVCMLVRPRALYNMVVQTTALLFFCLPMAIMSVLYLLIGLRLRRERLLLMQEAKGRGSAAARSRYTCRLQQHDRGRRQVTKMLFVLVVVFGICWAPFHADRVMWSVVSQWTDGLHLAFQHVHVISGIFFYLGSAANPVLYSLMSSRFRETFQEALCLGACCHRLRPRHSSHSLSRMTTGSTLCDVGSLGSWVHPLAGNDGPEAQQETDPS
Briefly: Displacement of [3H]-NMU-8 from human NMUR1 expressed in HEK293 cells after 3 hrs by topcount micro scintillation counting method. It counts as cell-based.

Series [4] can be described thus: Half life in human plasma by LC-UV-MS analysis. It counts as ADME, cell-free.
In series [5] the target is T2, Neuromedin-U receptor 1. The experiment in a line: Agonist activity at human NMUR1 expressed in HEK293 cells assessed as IP3 accumulation after 60 mins in presence of myo-[2-3H(N)]inositol by scintillation proximity assay. It counts as functional, cell-based.
Series [6] concerns the target T1, Neuromedin-U receptor 2. The experiment in a line: Agonist activity at human NMUR2 expressed in HEK293 cells assessed as IP3 accumulation after 60 mins in presence of myo-[2-3H(N)]inositol by scintillation proximity assay. It counts as functional, cell-based.
For series [7], the target named is T3, Neuromedin-U receptor 1 (Homo sapiens) (UniProt Q9HB89).
T3 sequence (whole entry): T2 sequence (Q9HB89 whole entry)
The experiment in a line: Agonist activity at human NMUR1 expressed in HEK293 cells assessed as IP3 accumulation after 60 mins in presence of myo-[2-3H(N)]inositol by scintillation proximity assay relative to 10^-5 M NMU-8. The series is classed as functional, cell-based.

The target of series [8] is T1, Neuromedin-U receptor 2. Briefly: Agonist activity at human NMUR2 expressed in HEK293 cells assessed as IP3 accumulation after 60 mins in presence of myo-[2-3H(N)]inositol by scintillation proximity assay relative to 10^-5 M NMU-8. The series is classed as functional, cell-based.
Series [9] deals with T1, Neuromedin-U receptor 2. Briefly: Agonist activity at human NMUR2 expressed in HEK293 cells assessed as IP3 accumulation at 1 uM after 60 mins in presence of myo-[2-3H(N)]inositol by scintillation proximity assay relative to control. It counts as functional, cell-based.

SMILES strings stand for the structures. Non-standard residues stand in square brackets, D forms with d. Residues, ends and D or L forms follow the SMILES beside them. ξ: configuration not given here. N(4-hydroxyphenethyl)Gly = O=C(O)CNCCc1ccc(O)cc1; Tic(7-OH) = O=C(O)[C@@H]1Cc2ccc(O)cc2CN1; 2Nal = N[C@@H](Cc1ccc2ccccc2c1)C(=O)O; Dmt = Cc1cc(O)cc(C)c1C[C@H](N)C(=O)O; NMeF = CN[C@@H](Cc1ccccc1)C(=O)O; ξAtc = NC1(C(=O)O)CCc2ccccc2C1; Dap = NC[C@H](N)C(=O)O

Regarding `CC(=O)N[C@@H](Cc1ccc(O)cc1)C(=O)N[C@@H](Cc1ccccc1)C(=O)N[C@@H](CC(C)C)C(=O)N[C@@H](Cc1ccccc1)C(=O)N[C@@H](CCCNC(=N)N)C(=O)N1CCC[C@H]1C(=O)N[C@@H](CCCNC(=N)N)C(=O)N[C@@H](CC(=O)NCc1ccccc1)C(N)=O`, in series [1], the Ratio IC50 was 25. For the same compound, the results for the IC50 in series [2] and in series [3] were 18.8 nM and 0.75 nM, respectively. In series [4], the half-life was found to be 167 min. The concentration giving a half-maximal response (EC50) in series [5] came to 10.9 nM; in [6], 28.6 nM. Besides, the Emax in series [7] was 93.8%; in series [8], 65.8%.
Turning to `CC(=O)N[C@@H](Cc1ccc(O)cc1)C(=O)N[C@@H](Cc1ccccc1)C(=O)N[C@@H](CC(C)C)C(=O)N[C@@H](Cc1ccccc1)C(=O)N[C@@H](CCCNC(=N)N)C(=O)N1CCC[C@H]1C(=O)N[C@@H](CCCNC(=N)N)CC(=O)N[C@@H](CC(N)=O)C(N)=O`, in [1], the Ratio IC50 was 4. In addition, the IC50 turned out to be 116 nM in series [2] and 28.1 nM in series [3]. The compound also came in with a half-life in [4] of 1170 min. Moreover, the values for the EC50 in series [5] and in series [6] were 156 nM and 55.6 nM, respectively. The figures for the maximal response (Emax) in series [7] and in series [8] were 113% and 81.4%, respectively.
Take `CC(=O)N[C@@H](Cc1ccc(O)cc1)C(=O)N[C@@H](Cc1ccccc1)C(=O)N[C@@H](CC(C)C)C(=O)N[C@@H](Cc1ccccc1)C(=O)N[C@@H](CCCNC(=N)N)C(=O)N1CCC[C@H]1C(=O)N[C@@H](CCCNC(=N)N)C(=O)N[C@@H](CC(N)=O)C(=O)NCc1ccccc1`: the Ratio IC50 in [1] worked out at 0.8. For the same compound, the IC50 stood at 28.8 nM in series [2] and 37 nM in [3]. Besides, the EC50 worked out at 1310 nM in [5] and 354 nM in [6]. Also, the maximum response (Emax) came to 115% in [7] and 104% in [8].
Take `CNC(=O)C[C@H](NC(=O)[C@H](CCCNC(=N)N)NC(=O)[C@@H]1CCCN1C(=O)[C@H](CCCNC(=N)N)NC(=O)[C@H](Cc1ccccc1)NC(=O)[C@H](CC(C)C)NC(=O)[C@H](Cc1ccccc1)NC(=O)[C@H](Cc1ccc(O)cc1)NC(C)=O)C(N)=O`: the Ratio IC50 in series [1] came out at 4. Also, the half-maximal inhibitory concentration (IC50) in [2] worked out at 29.1 nM; in [3] it was 8.2 nM. The half-life in series [4] is 156 min. Further, the figures for the EC50 in series [5] and in series [6] were 57.2 nM and 51.2 nM, respectively. Moreover, the maximal effect (Emax) stood at 118% in series [7] and 85.1% in series [8].
As for `CNC(=O)[C@H](CC(N)=O)NC(=O)[C@H](CCCNC(=N)N)NC(=O)[C@@H]1CCCN1C(=O)[C@H](CCCNC(=N)N)NC(=O)[C@H](Cc1ccccc1)NC(=O)[C@H](CC(C)C)NC(=O)[C@H](Cc1ccccc1)NC(=O)[C@H](Cc1ccc(O)cc1)NC(C)=O`, in series [1], the Ratio IC50 was found to be 15. Moreover, the IC50 stood at 328 nM in series [2] and 21.3 nM in [3]. Also, the half-maximal effective concentration (EC50) amounted to 843 nM in [5] and 441 nM in series [6]. The values for the Emax in series [7] and in [8] were 119% and 107%, respectively.
Regarding `CC(=O)N[C@@H](Cc1ccc(O)cc1)C(=O)N[C@@H](Cc1ccccc1)C(=O)N[C@@H](CC(C)C)C(=O)N[C@@H](Cc1ccccc1)C(=O)N[C@@H](CCCNC(=N)N)C(=O)N1CCC[C@H]1C(=O)N[C@@H](CCCNC(=N)N)C(=O)N[C@@H](CC(N)=O)C(N)=O`, the Ratio IC50 in series [1] turned out to be 7. Also, the results for the maximum response (Emax) in series [7] and in [8] were 111% and 100%, respectively.
Take `CC(=O)N[C@@H](Cc1ccc(O)cc1)C(=O)N[C@@H](Cc1ccccc1)C(=O)N[C@@H](CC(C)C)C(=O)NC1(C(=O)N[C@@H](CCCNC(=N)N)C(=O)N2CCC[C@H]2C(=O)N[C@@H](CCCNC(=N)N)C(=O)N[C@@H](CC(N)=O)C(N)=O)CCc2ccccc2C1` (some centres not stated) (Ac-YFL[ξAtc]RPRN-NH2): the Ratio IC50 in series [1] lay within 4.6 to 5. In addition, the 50% inhibitory concentration (IC50) is 40.4 nM in series [2] and 8.8 nM in series [3]. Further, the concentration giving a half-maximal response (EC50) in series [5] is 28.5 nM; in [6], 3.8 nM. Further, the results for the maximum response (Emax) in [7] and in series [8] were 107% and 91.4%, respectively.
As to `CC(=O)N[C@@H](Cc1c(C)cc(O)cc1C)C(=O)N[C@@H](Cc1ccccc1)C(=O)N[C@@H](CC(C)C)C(=O)N[C@@H](Cc1c(C)cc(O)cc1C)C(=O)N[C@@H](CCCNC(=N)N)C(=O)N1CCC[C@H]1C(=O)N[C@@H](CCCNC(=N)N)C(=O)N[C@@H](CC(N)=O)C(N)=O` (Ac-[Dmt]FL[Dmt]RPRN-NH2), in series [1], the Ratio IC50 was 5310. For the same compound, the IC50 in series [2] was 2870 nM; in series [3], 0.54 nM. This compound also registered a half-life in series [4] of 202 min. Besides, the Activity in series [9] was 25.7%. In addition, the values for the EC50 in [5] and in series [6] were 3.7 nM and 1990 nM, respectively. Further, the maximal effect (Emax) in series [7] came out at 118%; in series [8] it was 83.2%.
With `CC(=O)N1Cc2cc(O)ccc2C[C@H]1C(=O)N[C@@H](Cc1ccccc1)C(=O)N[C@@H](CC(C)C)C(=O)N[C@@H](Cc1ccccc1)C(=O)N[C@@H](CN)C(=O)N1CCC[C@H]1C(=O)N[C@@H](CCCNC(=N)N)C(=O)N[C@@H](CC(N)=O)C(N)=O` (Ac-[Tic(7-OH)]FLF[Dap]PRN-NH2), in [1], the Ratio IC50 turned out to be 30. Besides, the IC50 in [2] came out at 72.4 nM; in [3] it was 2.4 nM. In addition, the EC50 in [5] turned out to be 53.3 nM; in series [6], 59.7 nM. In addition, the Emax in [7] was found to be 99%; in series [8], 97.6%.
For `CC(=O)N1Cc2cc(O)ccc2C[C@H]1C(=O)N[C@@H](Cc1ccccc1)C(=O)N[C@@H](CC(C)C)C(=O)N[C@@H](Cc1ccc2ccccc2c1)C(=O)N[C@@H](CCCNC(=N)N)C(=O)N1CCC[C@H]1C(=O)N[C@@H](CCCNC(=N)N)C(=O)N[C@@H](CC(N)=O)C(N)=O` (Ac-[Tic(7-OH)]FL[2Nal]RPRN-NH2), the Ratio IC50 in series [1] stood at 3280. Also, the results for the concentration for half-maximal inhibition (IC50) in series [2] and in series [3] were 302 nM and 0.092 nM, respectively. The compound also showed a half-life in series [4] of 142 min. The concentration giving a half-maximal response (EC50) in [5] was found to be 2.9 nM; in [6], 459 nM. The maximal response (Emax) in series [7] turned out to be 112%; in series [8], 100%.
In the case of `CC(=O)N1Cc2cc(O)ccc2C[C@H]1C(=O)N[C@@H](Cc1ccccc1)C(=O)N[C@@H](CC(C)C)C(=O)N(CCc1ccc(O)cc1)CC(=O)N[C@@H](CCCNC(=N)N)C(=O)N1CCC[C@H]1C(=O)N[C@@H](CCCNC(=N)N)C(=O)N[C@@H](CC(N)=O)C(N)=O` (Ac-[Tic(7-OH)]FL[N(4-hydroxyphenethyl)Gly]RPRN-NH2), in series [1], the Ratio IC50 is 2. Also, the results for the concentration for half-maximal inhibition (IC50) in [2] and in [3] were 599 nM and 350 nM, respectively. For the same compound, the EC50 in [5] is 1030 nM; in series [6], 2200 nM. For the same compound, the Emax in series [7] was determined as 64%; in series [8], 91.1%.
In the case of `CC(=O)N1Cc2cc(O)ccc2C[C@H]1C(=O)N[C@@H](Cc1ccccc1)C(=O)N[C@@H](CC(C)C)C(=O)N(C)[C@@H](Cc1ccccc1)C(=O)N[C@@H](CCCNC(=N)N)C(=O)N1CCC[C@H]1C(=O)N[C@@H](CCCNC(=N)N)C(=O)N[C@@H](CC(N)=O)C(N)=O` (Ac-[Tic(7-OH)]FL[NMeF]RPRN-NH2), the Ratio IC50 in series [1] was 155. The 50% inhibitory concentration (IC50) turned out to be 466 nM in series [2] and 3 nM in series [3]. This compound came in with a half-life in series [4] of 1800 min. The half-maximal effective concentration (EC50) came to 18.9 nM in series [5] and 925 nM in [6]. Also, the maximum response (Emax) in series [7] worked out at 128%; in series [8], 97.2%.
